The results in this text go back to patent JP2013241470A, “ペプチド含有組成物” (Kikkoman Corp, priority 2013, dated 2013).

The target in this experiment is T1, ACE (angiotensin converting enzyme) (アンジオテンシン変換酵素) (Oryctolagus cuniculus, UniProt P12822).
T1 construct: 0.3U/ml ACE(ウサギ肺由来、シグマ製); purchased Sigma (シグマ); host or cells: rabbit lung tissue
T1 sequence (P12822 34-1310): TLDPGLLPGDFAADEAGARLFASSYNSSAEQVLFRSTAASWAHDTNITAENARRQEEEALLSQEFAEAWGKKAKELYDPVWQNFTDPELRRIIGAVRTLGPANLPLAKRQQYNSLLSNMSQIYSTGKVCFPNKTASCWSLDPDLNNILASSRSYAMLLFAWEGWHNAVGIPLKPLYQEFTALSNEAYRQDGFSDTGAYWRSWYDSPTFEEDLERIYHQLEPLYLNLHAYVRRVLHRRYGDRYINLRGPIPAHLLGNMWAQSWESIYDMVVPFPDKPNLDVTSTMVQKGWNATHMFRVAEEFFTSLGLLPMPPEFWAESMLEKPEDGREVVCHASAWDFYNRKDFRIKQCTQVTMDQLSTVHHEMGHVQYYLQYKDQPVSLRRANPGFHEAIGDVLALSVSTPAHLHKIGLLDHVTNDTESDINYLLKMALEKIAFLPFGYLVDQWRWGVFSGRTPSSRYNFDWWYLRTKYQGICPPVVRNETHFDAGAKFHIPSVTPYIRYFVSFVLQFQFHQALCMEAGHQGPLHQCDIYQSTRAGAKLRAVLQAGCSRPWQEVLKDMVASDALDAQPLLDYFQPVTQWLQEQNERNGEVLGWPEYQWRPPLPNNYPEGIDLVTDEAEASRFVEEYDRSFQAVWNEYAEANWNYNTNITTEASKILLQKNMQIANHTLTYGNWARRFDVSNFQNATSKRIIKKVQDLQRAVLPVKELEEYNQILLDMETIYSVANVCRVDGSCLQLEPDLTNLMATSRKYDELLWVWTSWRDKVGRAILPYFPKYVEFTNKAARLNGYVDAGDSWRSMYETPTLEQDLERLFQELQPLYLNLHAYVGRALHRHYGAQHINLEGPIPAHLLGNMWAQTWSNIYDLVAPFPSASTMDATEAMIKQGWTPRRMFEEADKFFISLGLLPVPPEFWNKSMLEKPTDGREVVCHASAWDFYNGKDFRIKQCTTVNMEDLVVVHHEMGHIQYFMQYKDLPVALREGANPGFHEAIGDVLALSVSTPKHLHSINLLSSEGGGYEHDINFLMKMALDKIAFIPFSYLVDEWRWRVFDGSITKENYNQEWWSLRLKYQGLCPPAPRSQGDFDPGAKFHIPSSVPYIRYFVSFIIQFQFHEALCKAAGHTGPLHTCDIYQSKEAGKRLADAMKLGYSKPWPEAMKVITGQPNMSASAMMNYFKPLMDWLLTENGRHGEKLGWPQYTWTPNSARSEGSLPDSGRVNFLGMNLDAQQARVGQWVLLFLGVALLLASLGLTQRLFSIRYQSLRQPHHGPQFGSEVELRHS
Briefly: ACE inhibitory activity (modified Cushman method, Hippuryl-His-Leu substrate). The class given is biochemical, rabbit.

As to Tyr−Thr, the ACE inhibitory activity result is recorded as “既知のペプチドと比較して充分に強い活性を有している” (chemically synthesised peptide, compared with known soybean-derived ACE inhibitory peptides (Table 1, not visible), ACE from rabbit lung, 37 °C, 30 min, pH 8.3) and “矢印で示したピークにのみ活性が見られた” (chromatographic fractions during isolation from composition 1 (組成物1)).
